Source: patent US9732367B2, “Cell lines” (MEDIMMUNE LIMITED, priority 2012, dated 2017)

Tests used:
Type in all cases: cell-based
pylRS/tRNA pair = molecular target: T1, pylRS/tRNA pair (Methanosarcina mazei, UniProt Q8PWY1); test: GFP assay: translational testing of pyrrolysine analogs as nnAAs; settings: nnAA 2 mM, 2-3 days
T1 construct: expressed in transfected cells; host or cells: HEK293 clone 3H7
Text: An in vitro cell based assay was developed to assess the compatibility of the pylRS/tRNA pair and the pyrrolysine analogs of the present invention (nnAAs) by and the efficiency of nnAAs integration into a target protein. For this, HEK293 cells stably expressing pylRS (3H7) were transiently transfected with plasmids for the expression of tRNApyl and a reporter construct encoding GFPY40 (containing amber codon in place of tyrosine at amino acid residue number 40 (where 1 is the initiator methionine)) using standard transfection protocols. Transfected cells were incubated with nnAAs at 2 mM for 2-3 days GFP production was analyzed qualitatively by visual inspection under the microscope. The GFP fluorescence was quantified by flow cytometry using an Accuri flow cytometer and the geometric mean of the fluorescent cells determined.
This cell based assay was used to determine whether the different nnAAs were suitable substrates for the pylRS and allowed its translation into a target protein. Cells expressing the PylRS/tRNApyl pair and containing a vector encoding the GFPY40 reporter gene were incubated in the presence of the nnAAs. nnAAs that are readily utilized by the PylRS/tRNApyl pair support the translation of the nnAA into the amber site of GFP and allow read-through of the gene producing full length GFP (fluorescent protein). The fluorescence intensity of the cells depends on the efficiency of nnAA incorporation. Thus, nnAAs that are poorly utilized produce weakly fluorescent or non-fluorescing cells. […] Furthermore, the relative expression levels in each sample was compared to those generated by substrates known to be efficiently utilized by pylRS.

[1] = tested on: CHO cells stably expressing pylRS and tRNApyl and an IgG directed against her2/neu containing an amber codon; test: Growth and viability of pylRS/tRNApyl cell line treated with lys azide and dnnAA
Text: To examine whether the dnnAAs of the invention could function to improve the viability of cells containing pylRS and tRNApyl we monitored the growth and viability of a cell line, stably expressing pylRS and tRNApyl. For this assay CHO cells stably expressing pylRS and tRNApyl and an IgG directed against her2/neu containing an amber codon in the heavy chain, shown to effectively incorporate nnAA into the expressed IgG thus producing an antibody containing a nnAA, were used for this experiment. Despite a high expression level of pylRS/tRNApyl pair, this cell line has very robust cell growth characteristics when grown in medium lacking nnAA. The presence of a highly expressed target containing an amber codon likely has a protective effect on the cells by supplying them with high levels of amber codons that absorb the amber suppression activity and protects the cells from the effects of background amber suppression at essential genes. However, upon addition of the nnAA (lys-azide) to the growth medium, and activation of the amber suppression machinery, a decrease in cell growth rate is observed. […] To determine whether a dnnAA can rescue this effect, cells cultured in serum free medium were grown to a cell density of 0.5×10^6 cells/mL and subsequently treated with 0.5 mM lys azide alone or in combination with 2 Mm dnnAA. Cell viability and cell numbers were monitored daily over seven days. Cells treated with lys azide alone reached a cell density just below 1×10^6 cells/mL on day 3 after nnAA addition and remained at this density for the remainder of the assay (seven days) (FIG. 15A) The lack of growth was not likely due to loss of viability as the culture retained high viability throughout the experiment (˜70% viable cells) (FIG. 15B) Cultures treated with 2 mM Compound of formula VIIB.4, or 2 mM Formula VIIB.1 in combination with 0.5 mM lys-azide supported continued growth of the culture that reached over 1.5×10^6 cells/mL and retained a cell viability of 90%.

pylRS = molecular target: T2, pylRS (Methanosarcina mazei, UniProt Q8PWY1); test: In vitro GFPY40 functional assay: dnnAA competition with lys azide in HEK293 cells stably expressing pylRS; settings: for reduction of GFP expression relative to samples lacking dnnAA (geometric mean fluorescence intensity): lys azide with 0.5 mM, 1 mM and 2 mM dnnAA
T2 construct: expressed in transfected cells
Text: Effective dnnAAs were identified by their ability to compete with a high affinity substrate for pylRS (lys-azide) in an in vitro assay, for their ability to reduce background amber suppression levels observed with a reporter protein, and for their ability to improve the viability and function of cells previously selected for high pylRS/tRNA activity.
To identify analogues that could effectively compete for pylRS binding with lys-azide, dnnAAs were first tested for function in an in vitro functional assay based on the ability of cells expressing WT pylRS and tRNApyl to introduce a nnAA at a target site in the reporter protein GFPY40. This reporter contains an amber codon in its open reading frame that, in the absence of amber suppression, generates a truncated protein that is not fluorescent. In the event of amber suppression, a full length GFP protein is generated that is detectable by fluorescence detection methods. In this assay, HEK293 cells stably expressing pylRS, were transiently transfected with a tRNA expression construct and the GFPY40 reporter cassette. Cells were then incubated with 0.5 mM lys azide in the presence or absence of different concentrations of dnnAA ranging from 0.5 mM to 2 mM. GFP fluorescence levels were then quantified by flow cytometry. For this assay the proportion of fluorescent cells in each condition was determined and plotted. As the dnnAAs are expected to compete with the nnAA (lys-azide) for pylRS/tRNA binding, an effective dnnAA should reduce or prevent the expression of full length GFP (as described above dnnAAs can be delivered by the tRNA to the amber site, but cannot propagate protein synthesis).
A similar in vitro assay was used to gauge the effectiveness of the dnnAAs of Formula VIIB listed in Table 1 where a description of the amino acids tested and a summary of the results are shown For this assay the geometric mean fluorescence intensity of each sample was determined by flow cytometry and plotted. For each dnnAA tested control cells transfected with wild type GFP were measured as a positive control. In addition cells transfected with the reporter GFPY40 and exposed to 0.5 mM lys azide or 2 mM lys azide were used to determine maximal GFP expression levels in the absence of an inhibitor. In each case robust GFP expression levels were observed. To test whether any of the dnnAA could reduce the efficacy of GFP expression, cells were incubated in the presence of 0.5 mM, 1 mM and 2 mM […]. […] Thus, dnnAAs of the present invention can compete with the lys-azide nnAA for binding to the pylRS and interfere with the physiological mechanism of nnAA introduction. Cells transfected with the pylRS/tRNA pair and the GFPY40 reporter construct but not exposed to either lys-azide or a dnnAA were used to determine levels of background amber suppression and used as a negative control. In each case low GFP expression levels were observed.

[2] = tested on: background amber suppression; test: Background amber suppression (GFPY40 reporter, pylRS/tRNApyl, dnnAA without nnAA); settings: for reduction in background amber suppression levels: dnnAA at 0.5 mM, 1 mM and 2 mM; for % Reduction at 2 mM Decoy: reduction in GFP expression relative to control not exposed to dnnAA, 3 days
Procedure: The competitive assay for dnnAA inhibition in the presence of a high affinity substrate identified dnnAAs that compete for binding with to the pylRS and thus are specific inhibitors of the pylRS/tRNA. However, the decoy nnAA is intended to reduce the levels of background amber suppression in the absence of nnAA. To determine if background amber suppression levels could be reduced, we incubated cells containing the GFPY40 reporter construct and the pylRS/tRNApyl pair in medium containing one of the dnnAAs. To do this, HEK293 cells stably expressing pylRS were transiently transfected with a tRNA expression construct and the GFPY40 reporter cassette. After 3 days of incubation, cells were assayed for expression of GFP by flow cytometry and geometric mean fluorescence intensity of the samples determined. We have previously observed that cells containing the full complement of the pylRS/tRNA amber suppression system show detectable expression of the GFP reporter construct that is above what is observed in cells lacking the amber suppression system. […] To identify dnnAAs capable of reducing background amber suppression levels the transfected cells were incubated with each of the dnnAAs at 0.5 mM, 1 mM and 2 mM and GFP levels measured by flow cytometry.
The decrease in background amber suppression dependent GFP expression was dose dependent and improved as the dnnAA concentration increased. […] This feature is an attractive characteristic for platform development as it enables the repression of background amber suppression but the system can be activated upon addition of a strong pylRS substrate such as lys-azide. […] Their efficacy was quantified by the reduction in GFP expression relative to a control sample (not exposed to dnnAA) and the data are summarized in Table 1.

[3] = Formula V analogs, geometric mean
[4] = 2 mM dnnAA with 0.5 mM lys-azide
[5] = 2 mM dnnAA with 0.5 mM lys-azide, seven days

T1 sequence (Q8PWY1 whole entry): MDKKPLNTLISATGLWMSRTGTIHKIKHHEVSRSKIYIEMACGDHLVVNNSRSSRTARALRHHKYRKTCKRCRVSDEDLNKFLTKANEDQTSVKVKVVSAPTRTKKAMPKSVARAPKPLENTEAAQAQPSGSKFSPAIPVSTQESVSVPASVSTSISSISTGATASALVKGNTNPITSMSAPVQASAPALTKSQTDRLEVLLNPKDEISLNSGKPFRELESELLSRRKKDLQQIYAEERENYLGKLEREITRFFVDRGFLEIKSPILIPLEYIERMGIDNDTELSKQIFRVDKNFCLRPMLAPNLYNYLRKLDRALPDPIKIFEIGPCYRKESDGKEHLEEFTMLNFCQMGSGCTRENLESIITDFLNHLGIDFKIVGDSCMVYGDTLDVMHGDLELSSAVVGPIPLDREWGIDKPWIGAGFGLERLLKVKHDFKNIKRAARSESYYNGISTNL
T2 sequence (Q8PWY1 whole entry): as above

Structure (SMILES): [N-]=[N+]=NCCOC(=O)NCCCC[C@H](N)C(=O)O [Formula V.1, (2S)-2-amino-6-{[(2-azidoethoxy)carbonyl]amino}hexanoic acid]
- Positive GFP (pylRS/tRNA pair; Formula V analogs): Yes
- MFI (pylRS/tRNA pair; [3]): 931,289
- MFI (pylRS/tRNA pair; Formula V analogs, geometric mean, listed as V.1): 931289
- viable cells ([1]; 0.5 mM lys azide alone): ~70%
- cell density ([1]; 0.5 mM lys azide alone, day 3 to day 7): below 1 ×10^6 cells/mL

Structure (SMILES): C#CCOC(=O)NCCCC[C@H](N)C(=O)O [Formula V.2, (2S)-2-amino-6-{[(prop-2-yn-1-yloxy)carbonyl]amino}hexanoic acid]
- Positive GFP (pylRS/tRNA pair; Formula V analogs): Yes
- MFI (pylRS/tRNA pair; [3]): 1,676,250
- MFI (pylRS/tRNA pair; Formula V analogs, geometric mean, listed as V.2): 1676250

Structure (SMILES): [N-]=[N+]=NCCNC(=O)OCCCC[C@H](N)C(=O)O [Formula VI.1, (2S)-2-amino-6-{[(2-azidoethyl)carbamoyl]oxy}hexanoic acid]
- MFI (pylRS/tRNA pair; Formula VI analogs): 904206
- Positive GFP Assay (pylRS/tRNA pair; Formula VI analogs): incorporated in the GFP reporter gene and yield green cells and Yes

Structure (SMILES): C=CCNC(=O)OCCCC[C@H](N)C(=O)O [Formula VI.3, (2S)-2-amino-6-{[(prop-2-en-1-yl)carbamoyl]oxy}hexanoic acid]
- Positive GFP Assay (pylRS/tRNA pair; Formula VI analogs): incorporated in the GFP reporter gene and yield green cells and Yes

Structure (SMILES): C=CCOC(=O)NCCCCCC(=O)O [Formula VIIB.1, 6-{[(prop-2-en-1-yloxy)carbonyl]amino}hexanoic acid]
- reduction of GFP expression relative to samples lacking dnnAA (geometric mean fluorescence intensity) (pylRS): greatest reduction of GFP expression
- prevention of cytostatic effects of amber suppression activation [1, 4]: prevent the cytostatic effects
- cell viability [1, 5]: 90%
- reduction in background amber suppression levels [2]: reduction in the background amber suppression levels
- % Reduction at 2 mM Decoy [2]: 62.5%

Structure (SMILES): O=C(O)CCCCCNC(=O)OCCCl [Formula VIIB.3, 6-{[(2-chloroethoxy)carbonyl]amino}hexanoic acid]
- reduction of GFP expression relative to samples lacking dnnAA (geometric mean fluorescence intensity) (pylRS): greatest reduction of GFP expression
- cell density [1, 5]: < 0.5 ×10^6 cells/mL
- cell viability [1, 5]: 30-40%
- reduction in background amber suppression levels [2]: reduction in the background amber suppression levels
- % Reduction at 2 mM Decoy [2]: 49.7%

Structure (SMILES): CC(C)(C)OC(=O)NCCCCCC(=O)O [Formula VIIB.4, 6-{[(tert-butoxy)carbonyl]amino}hexanoic acid]
- number of fluorescent cells (GFPY40) (pylRS; 0.5 mM lys azide with dnnAA 0.5 mM to 2 mM): concomitant reduction in the number of fluorescent cells
- GFP expression with dnnAA alone (amber codon readthrough) (pylRS; dnnAA alone, no lys azide): did not induce GFP expression
- effect on GFPwt expression (non-specific effects) (pylRS; reporter lacking an amber codon): no effect on protein expression
- prevention of cytostatic effects of amber suppression activation [1, 4]: prevent the cytostatic effects
- cell viability [1, 5]: 90%
- % Reduction at 2 mM Decoy [2]: 46.3%

Structure (SMILES): C#CCOC(=O)NCCCCCC(=O)O [Formula VIIB.5, 6-{[(prop-2-yn-1-yloxy)carbonyl]amino}hexanoic acid]
- reduction of GFP expression relative to samples lacking dnnAA (geometric mean fluorescence intensity) (pylRS): relative reduction in GFP expression was much lower
- reduction in background amber suppression levels [2]: reduction in the background amber suppression levels
- % Reduction at 2 mM Decoy [2]: 35%
- % Reduction at 2 mM Decoy ([2]; listed as VIIB.5): 35.0%

Structure (SMILES): [N-]=[N+]=NCCOC(=O)NCCCCCC(=O)O [Formula VIIB.6, 6-{[(2-azidoethoxy)carbonyl]amino}hexanoic acid]
- reduction of GFP expression relative to samples lacking dnnAA (geometric mean fluorescence intensity) (pylRS): greatest reduction of GFP expression
- reduction in background amber suppression levels [2]: reduction in the background amber suppression levels
- % Reduction at 2 mM Decoy [2]: 32%
- % Reduction at 2 mM Decoy ([2]; listed as VIIB.6): 32.7%
